The values that follow come from US6156790A, “C-10 carbon-substituted artemisinin-like trioxane compounds having antimalarial, antiproliferative and antitumor activities” (priority 1997, dated 2000).

SMILES strings stand for the structures.

Data set [1] has as its system DU-145. Description: cells. It is filed as cell-based. Conditions: Homo sapiens.
For data set [2], the system named is murine keratinocyte cell line PE. Nature of the data set: growth inhibition of PE cells (MTT assay). The note with it: 100 nanomolar. In kind it is cell-based. On the procedure: To determine the inhibitory effect of the compositions of the present invention on cell proliferation, screening assays were performed on a murine keratinocyte cell line PE. Cell line PE was chosen for its particular sensitivity to the induction of ornithine decarboxylase (ODC) activity by the extensively characterized tumor promoter TPA. […] PE cell culture medium consisted of Eagle's minimal essential medium without calcium chloride (Whittaker Bioproducts, Walkersville, Mass.) supplemented with 8% chelexed fetal calf serum and 1% antibiotic-antimycotic (Gibco BRL) and the addition of CaCl2 to 0.05 mM Ca^++.
Growth Inhibition. Growth curves, shown in FIGS. 1 and 2, for PE cells treated with calcitriol and the C-10 carbon-substituted dimers 21, 22, 26, 27, and 28 generated by assay for the reduction of the tetrazolium-based compound MTT, see Charmichael, et al., Cancer Res., 47:936-942 (1987). […] PE cells were seeded at a density of 5,000 cells/well in 50 μL of medium into 96-well microtiter plates. Twelve hours later, the medium was removed, and cells were treated with 100 μL of fresh medium into which the appropriate amount of calcitrol or analog dissolved in dimethyl sulfoxide (DMSO) had been added, with the concentration of DMSO held constant at 0.1%. […] At 24-hour intervals following the initial treatment of the cells with compounds, 0.1 mg (50 μL of a 2 mg/mL solution) of MTT was added to each well. After 4 hours, the MTT was removed and DMSO added to dissolve the blue formazan dye. Using a microtiter plate reader, the A505 was then determined and cell number calculated from blank-subtracted absorbance values.
On the technique in general: Tetrazolium dyes change colour on reduction, which living cells bring about.

The subject of data set [3] is RPMI-8226. Description: cells. In kind it is cell-based. The note with it: Homo sapiens.
The test system of data set [4] is 60 cell line panel. Conditions: cell line panels of 60 lines; cited from earlier work.
Data set [5] relates to P. berghei. Conditions: P. berghei-infected mice; cited from earlier work.
The conditions of data set [6]: cited from earlier work.
Data set [7] is described as follows: stability of pyranosyl fluorides. It is filed as physicochemical. The note with it: after purification. The text has this:
Coupling of either the α-fluoride or the β-fluoride VI with trimethylaluminum in the presence of boron trifluoride-etherate gave 10β-methyl derivative VII where n=1 and R=CH3 with almost complete stereoselectivity, thereby implicating a common oxygen-stabilized C-10 carbocation intermediate. The relative stereochemistry at carbons 9 and 10 was established by the characteristic ^1 H NMR chemical shifts and coupling constants of the methine hydrogen atoms at these positions (J9,10 =10-11 Hz for trans and J9,10 =5.6-6.7 Hz for cis). […] Several dimethyl aluminum acetylides, prepared from Me2 AlCl and the corresponding lithium acetylides, coupled smoothly to form exclusively the 10β-acetylenic derivatives. Di- and tri-methoxylated benzenes and heteroaromatic N-methylpyrrole and furan coupled to produce exclusively, in stereochemical contrast, the 10α-oriented derivatives. Apparently, relatively small nucleophiles approach the intermediate cation from the β-face of the molecule, whereas relatively large aryl and heteroaryl nucleophiles approach from the α-face (i.e. directed by and trans to the C-9 methyl group). Coupling of pyranosyl fluoride VI with N-methylpyrrole proceeded equally well on 400 mg scale as on 20 mg scale, and larger scale executions of this and of the other coupling reactions reported here are not expected to be a problem.

By GI50 is commonly meant the concentration giving 50% growth inhibition.

With `C[C@H]1[C@@H](CC(=O)c2ccc(C(=O)C[C@H]3O[C@@H]4O[C@@]5(C)CC[C@H]6[C@H](C)CC[C@@H]([C@H]3C)[C@@]46OO5)cc2)O[C@@H]2O[C@@]3(C)CC[C@H]4[C@H](C)CC[C@@H]1[C@@]24OO3` [Dimer 21], in data set [1] (read-out: Log10 GI50 (converted)), the GI50 was 6.31 µM. Besides, the IC (TGI) in data set [1] (read-out: Log10 TGI (converted)) was 31.6 µM. Besides, the “antiproliferative activity compared with calcitriol” value in data set [2] is on record as “at least as antiproliferative as calcitrol”.
Regarding `C[C@@H]1CC[C@H]2[C@@H](C)C(=O)O[C@@H]3O[C@@]4(C)CC[C@@H]1[C@]32OO4` [Artemisinin], the CC50 in data set [3] (read-out: Log10 LC50 (converted)) is above 100 µM. Also, the IC (TGI) in data set [3] (read-out: Log10 TGI) was above 100 µM. Also, the anticancer activity entry in data set [4] is on record as “very little anticancer activity”. Besides, the “SD90 (parasitemia 90 percent suppressed)” value in data set [5] is 6.20 mg/kg. Further, the solubility in water entry in data set [6] was “insolubility in water”.
Regarding `C[C@H]1[C@@H](F)O[C@@H]2O[C@@]3(C)CC[C@H]4[C@H](C)CC[C@@H]1[C@@]24OO3` [Compound VI, 10β-Fluorodeoxoartemisinin], the stability of solid entry in data set [7] was “stable crystalline solid”.
